The source of these data is patent US6511979B1, “Methods for treating conditions modulated by lactosylceramide” (Johns Hopkins University, priority 1998, dated 2003).

For one experiment, the target named is T1, GlcT-1 (Homo sapiens, UniProt Q16739).
T1 sequence (Q16739 1-394): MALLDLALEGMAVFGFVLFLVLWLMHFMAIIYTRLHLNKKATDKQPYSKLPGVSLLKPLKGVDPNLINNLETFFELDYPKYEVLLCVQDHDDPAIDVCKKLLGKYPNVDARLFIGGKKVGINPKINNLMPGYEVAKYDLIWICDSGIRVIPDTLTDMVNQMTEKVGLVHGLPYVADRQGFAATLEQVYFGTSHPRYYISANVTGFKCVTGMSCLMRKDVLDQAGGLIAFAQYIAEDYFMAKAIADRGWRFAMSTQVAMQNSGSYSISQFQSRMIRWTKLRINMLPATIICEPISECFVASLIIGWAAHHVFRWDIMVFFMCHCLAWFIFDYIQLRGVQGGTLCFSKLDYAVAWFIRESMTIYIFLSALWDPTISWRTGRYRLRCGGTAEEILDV
To be noted: reported in literature; cited from earlier work.

In the next experiment the test system is vascular cells. Conditions: reported in literature; cited from earlier work.
The next experiment has as its system GalT-2. As to the kind of experiment: GalT-2 activity assay (standard in vitro GalT-2 assay / GalT-2 enzyme assay). It counts as cell-based. From the text: Preferred in vitro detection assays according to the present invention involve one or more steps associated with LacCer-related pathways. Such assays include the following steps 1) through 4):
1) culturing a population of LacCer-responsive cells with LacCer;
2) adding a known or candidate GalT-2 enhancing compound to the cells;
3) measuring activity of a cell molecule or function in the LacCer-related pathway; and
4) determining the effect of the known or candidate GalT-2 enhancing compound on the cell, e.g., by measuring activity of the cell molecule or function. Typically, the cell function will be one or more of cell proliferation, cell adhesion or expression of specified surface proteins on the cells. Examples of cell molecules include LacCer-responsive enzymes as specified below.
That assay can effectively measure the capacity of the GalT-2 enhancing compound to promote GalT-2 activity. References herein to a “standard in vitro GalT-2 assay” or other similar phrase refers to the above protocol of steps 1) through 4) when the specified cell molecule measured in step 3) above is GalT-2. As described in more detail below, other in vitro assays of the invention measure specified cell molecules in the LacCer-related steps or pathways. The in vitro assays of the present invention can be conducted with nearly any population of cells responsive to LacCer as provided below. […]

For experiment [1], the system named is LacCer-responsive cells. As to the kind of experiment: cell proliferation in LacCer-responsive cells. It counts as cell-based. As for the experimental part: Preferably, the GalT-2 enhancing compound promotes cell proliferation by at least 10 to 25%, preferably at least about 50%, relative to a suitable control assay. In such an assay, between about 0.1 to 100 μM, preferably between about 1 to 50 μM of a desired GalT-2 enhancing compound is used. Exemplary cell proliferation assays include counting viable cells and monitoring activity of specified citric acid cycle enzymes such as lactate dehydrogenase. A preferred assay measures incorporation of one or more detectably-labeled nucleosides into DNA, e.g., by:
a) culturing suitable cells in medium and adding 1) a candidate GalT-2 enhancing compound and 2) a radiolabeled nucleoside such as ^3H-thymidine typically in an amount between about 0.1 to 100 μCi;
b) incubating the cells, e.g., for about 6-24 hours, and typically followed by washing; and
The measurement can be achieved by several methods including trichloroacetic acid (TCA) precipitation of labeled DNA on filters followed by scintillation counting. See e.g., Chatterjee, S., Biochem. Biophys. Res Comm. (1991) 181:554; Chatterjee, S. et al. (1982) Eur. J. Biochem. 120:435 for disclosure relating to this assay.
References herein to a “standard in vitro cell proliferation assay” or other similar phrase refer to an assay that includes the above steps a) through c). […]

Experiment [2] has as its system LacCer-responsive cells. Kind of experiment: cell adhesion in LacCer-responsive cells. The class given is cell-based. As for the experimental part:
Preferably, the GalT-2 enhancing compound increases cell adhesion by at least 25%, preferably at least 50% or more relative to a suitable control assay. In such an assay, between about 0.1 to 100 μM, preferably between about 1 to 50 μM of a desired GalT-2 enhancing compound is used. For example, a preferred cell adhesion assay includes the following steps:
a) labeling a first population of immune cells, preferably certain leukocytes, with a detectable label which can be a chromatic, radioactive, luminescent (e.g., fluorescent, or phosphorescent), or enzymatic label capable of producing a detectable label, […]
References herein to a “standard in vitro cell adhesion assay” or other similar phrase refer to an assay that includes the above steps a) through c). The detection in step c) can be achieved by a variety of methods such as microscopy (by manually counting cells), particularly confocal microscopy and fluorescence-based photomicroscopy involving FACS; automated cell sorting techniques, immunological methods such as ELISA and RIA; and scintillation counting. […]
A preferred in vitro cell adhesion assay measures polymorphonuclear leukocytes (PMNs and/or monocytes) or platelets and increased endothelial cell adhesion before, during or after contact with a desired GalT-2 enhancing compound. […] Adhering cells are then quantitated by standard methods such as by use of a fluorescence plate reader. […]

Entries after “also recorded” stand apart in the source; their conditions may differ.

With `CCCCCCCCCC(=O)NC(CN1CCOCC1)C(O)c1ccccc1` [D-PDMP, 1-phenyl-2-decanolylamino-3-morpholino-1-propanol], the “effect on GlcT-1” value on GlcT-1 was “inhibits GlcT-1”. The “effect on proliferation of vascular cells” value in the experiment with vascular cells is recorded as “reduces proliferation of vascular cells”.
As for `CCCCCCCCCC(=O)N[C@@H](CN1CCOCC1)C(O)c1ccccc1` (stereo partly drawn) [L-PDMP, L-1-phenyl-2-decanoylamino-3-morpholino-1-propanol], in the experiment with GalT-2, the “effect on GalT-2 activity” value is on record as “increase the activity of GalT-2; also recorded: effectively stimulating GalT-2”. Further, the “effect on proliferation in LacCer-responsive cells” value with LacCer-responsive cells [1] is recorded as “increasing proliferation”. Besides, the “effect on adhesion in LacCer-responsive cells” value in the experiment with LacCer-responsive cells [2] was “increasing proliferation and adhesion”.
